From US12545688B2, “Camptothecin derivative and conjugate thereof” (SICHUAN BAILI PHARMACEUTICAL CO., LTD, priority 2019, dated 2026)
Where two headings read alike, the source gives them in different places.

What was measured:
Assay in all cases: In vitro activity test, inhibition of target cell proliferation (MTS)
Type in all cases: cell-based
SW620 = settings: Homo sapiens, SW-620, 96 h, read-out: IC50 for the inhibition of target cell proliferation in vitro, SW620
Experimental: (§1) • Cells: A431, SW620, BXPC3, Fadu from the Cell Bank of the Chinese Academy of • Sciences Cell • Culture medium DMEM: Gibco • FBS: BIOWEST
(§2) • Growth medium (with 10% FBS, Penicillin/streptomycin (100 U/mL) • Detection medium (with 1% FBS, Penicillin/streptomycin (100 U/mL)
(§3) Turn on the UV light of the biological safety cabinet 30 minutes in advance, and then turn on the ventilation for 3 minutes. The growth medium, detection medium, D-PBS and trypsin were preheated in a constant temperature water bath at 37° C., and then the surfaces were disinfected with alcohol and placed in a biological safety cabinet. Place the cells with a confluence of about 80% in a biological safety cabinet, aspirate the old medium, rinse with D-PBS, aspirate and discard, digest with trypsin for 2-3 min, add growth medium to neutralize, and centrifuge. 1200 rpm, 3 min. Aspirate the centrifugation supernatant, mix with 4 mL of detection medium, and count 100 uL (50 uL of cell fluid is taken out, 50 μL of Trypan Blue Stain is added and mixed, and counted after mixing). According to the pre-optimized cell plating density, 80 ul/well was plated in a 96-well plate. Only 80 uL detection medium was added to wells E11 and F11, and 150 uL of DPBS was added to the edge wells. 24 h after plating, add diluted antibody, 20 uL per well and set control, only add 20 uL detection medium in column 11, set 2 duplicate wells for each concentration, and mix on a cell vortex shaker after adding, 550 rpm, 3 min.
(§4) Dilution of the antibody solution: use the detection medium to prepare the test solution with an initial concentration of 5 uM and 300 uL in the first column of the V-shaped 96-well plate, and then add 240 uL of detection medium to the second to 10th columns respectively, take 60 uL from the first column of mixing and add it to the second column, mix up and down with a row gun for 10 times, discard the pipette tip, and operate the following 7 concentrations in sequence.
(§5) After 4 days, take out the MTS reagent, thaw at room temperature in the dark, vortex and mix well, add 20 μL of CellTiter One Solution Reagen MTS reagent per 100 μL of cell culture volume along the side wall of the well in the biological safety cabinet, and tap gently. After the MTS solution was evenly mixed, it was placed in a cell incubator for 2 h in the dark. After the reaction, the 96-well plate was taken out, the absorbance at OD490 nm was detected in a microplate reader, and the data was recorded, organized, analyzed and stored.

A431 = settings: Homo sapiens, A-431, 96 h, read-out: IC50 for the inhibition of target cell proliferation in vitro, A431
Experimental: as §1, §2, §3, §4, §5

Fadu = settings: Homo sapiens, 96 h, read-out: IC50 for the inhibition of target cell proliferation in vitro, Fadu
Experimental: as §1, §2, §3, §4, §5

Bxpc-3 = settings: Homo sapiens, read-out: IC50 for the inhibition of target cell proliferation in vitro, Bxpc-3
Experimental: as §1, §2, §3, §4, §5

[1] = 96 h, Bxpc-3 cells, MTS after 4 days

Row | SMILES | IC50 (SW620) | IC50 (A431) | IC50 (Fadu; FaDu) | IC50 (Bxpc-3; BXPC-3, 96 h) | IC50 (SW620; SW620 cells, MTS after 4 days) | IC50 (A431; A431 cells, MTS after 4 days) | IC50 (Fadu; Fadu cells, MTS after 4 days) | IC50 (Bxpc-3; [1])
1 | CCCN(C(=O)CO)[C@H]1CCc2c(C)c(F)cc3nc4c(c1c23)Cn1c-4cc2c(c1=O)COC(=O)[C@]2(O)CC [Compound 12] | 200 to 1000 nM | 1.1 nM | 0.13 nM | 1.6 to 8 nM | – | – | – | –
2 | CC[C@@]1(O)C(=O)OCc2c1cc1n(c2=O)Cc2c-1nc1cc(F)c(C)c3c1c2[C@@H](N(C)C(=O)C1(O)CC1)CC3 [Compound 14] | 200 to 1000 nM | 93.3 nM | 53 nM | 153 nM | – | – | – | –
3 | CC[C@@]1(O)C(=O)OCc2c1cc1n(c2=O)Cc2c-1nc1cc(F)c(C)c3c1c2[C@@H](N(C)C(=O)CO)CC3 [Compound 6] | – | – | – | – | 17.7 nM | 3.63 nM | 1.64 nM | 13.1 nM
4 | CC[C@@]1(O)C(=O)OCc2c1cc1n(c2=O)Cc2c-1nc1cc(F)c(C)c3c1c2[C@@H](N(C)C(=O)[C@H](C)O)CC3 [Compound 16] | – | – | – | – | 0.064 to 0.32 nM | 0.03 nM | 0.0014 nM | 0.00256 to 0.0128 nM
